How the values were obtained:
[1] = test system: circulating endothelial colony forming cells (ECFC); test: Circulating endothelial colony forming cells (ECFC) in human volunteers before and after meloxicam; assay type: in vivo; details: post 5 day regimen; before treatment only 4/7 had detectable ECFC
Procedure: For analysis of circulating ECFC, PB mononuclear cells were plated in media at 37° C., 5% CO2, 5% O2 in 6 well culture plates coated with type 1 collagen. Media was be replaced every other day for 7-14 days at which time the adherent colonies of endothelial cells (EC) are removed with Trypsin and replated in collagen coated culture wells at a single cell per well. After 14 days each well is visually examined to determine whether there are 2 or more cells per well and if so, the total number of EC counted.

[2] = test system: progenitors from the bone marrow; test: Mobilization of progenitors from the bone marrow (NSAID comparison); details: in vivo

Cc1cnc(NC(=O)C2=C(O)c3ccccc3S(=O)(=O)N2C)s1 [Meloxicam, meloxicam]
volunteers with detectable ECFC in 40 mL of blood post treatment [1]: 7/7

CC(=O)Oc1ccccc1C(=O)O [aspirin]
ability to mobilize progenitors from the bone marrow [2]: highly effective

Cc1onc(-c2ccccc2)c1-c1ccc(S(N)(=O)=O)cc1 [valdecoxib]
ability to mobilize progenitors from the bone marrow [2]: unable to mobilize
